US20250051355A1, “COMPOUNDS, COMPOSITIONS, AND METHODS” (ACONCAGUA BIO, INC., priority 2023, published 2025)

Key:
[1] = target: T1, human calcitonin receptor (CTR) (Homo sapiens, UniProt P30988); test: Calcitonin receptor (CTR) cAMP Assay; assay type: cell-based; details: COS7-human CTR Clone #2 cells, cAMP dynamic 2 kit; read-out: Calcitonin Receptor cAMP Stimulation Activity: EC50
T1 construct: expressed in transfected cells; host or cells: COS-7 (COS7-human CTR Clone #2)
T1 sequence (P30988 25-474): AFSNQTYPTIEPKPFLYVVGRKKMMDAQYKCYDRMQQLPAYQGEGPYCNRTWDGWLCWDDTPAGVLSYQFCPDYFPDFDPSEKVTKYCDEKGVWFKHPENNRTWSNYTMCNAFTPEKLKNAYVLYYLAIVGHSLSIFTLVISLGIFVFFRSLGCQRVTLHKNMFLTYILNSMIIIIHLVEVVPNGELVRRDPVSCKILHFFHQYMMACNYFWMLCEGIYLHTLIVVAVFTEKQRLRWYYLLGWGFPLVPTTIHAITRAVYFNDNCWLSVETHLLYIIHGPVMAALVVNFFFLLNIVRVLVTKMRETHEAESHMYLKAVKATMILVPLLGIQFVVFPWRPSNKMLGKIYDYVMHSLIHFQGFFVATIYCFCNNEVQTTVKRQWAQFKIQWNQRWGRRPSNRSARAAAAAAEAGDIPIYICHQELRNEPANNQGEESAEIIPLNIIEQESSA
Method in brief: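 COS-7 cells stably expressing human CTR (2000 cells/well) treated with 4-fold serially diluted compounds in HBSS/20 mM HEPES/0.5 mM IBMX/0.1% casein, 30 min at 37° C. cAMP quantified by HTRF (cAMP-d2 plus anti-cAMP cryptate, 1 h RT), fluorescence read at 665 and 615 nm.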

[2] = target: human calcitonin receptor (CTR) and RAMP3 (AMY3) (Homo sapiens, UniProt O60896+P30988); test: Amylin Receptor cAMP Assay II; assay type: cell-based; details: COS-7/AMY3 cells, cAMP dynamic 2 kit, read-out: Amylin Receptor cAMP Stimulation Activity: EC50
Method in brief: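 COS-7 cells stably co-expressing human CTR and RAMP3 (AMY3) were treated with 4-fold serially diluted compounds at 2000 cells/well in HBSS with 20 mM HEPES, 0.5 mM IBMX and 0.1% casein for 30 min at 37 °C. cAMP was measured by HTRF (cAMP-d2 plus anti-cAMP cryptate, 1 h at RT) with reads at 665/615 nm.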

Sequence of human calcitonin receptor (CTR) and RAMP3 (AMY3) (O60896 24-148, one chain of several): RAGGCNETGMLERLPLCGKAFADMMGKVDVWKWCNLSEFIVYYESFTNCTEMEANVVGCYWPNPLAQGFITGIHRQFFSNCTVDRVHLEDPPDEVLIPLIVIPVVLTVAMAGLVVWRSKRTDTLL

EC50 [1] | EC50 [2] | Compound
0.336 nM | 8.8 nM | Cc1nnc(-c2c(CCc3ccc(F)cc3)nc3c(c2-c2ccc4c(c2)oc(=O)n4C(C)c2ccc(C#N)c(F)c2)c(=O)n2n3CCC2)o1 (stereo not drawn) [Compound 140, 2-fluoro-4-[1-(6-(11-[2-(p-fluorophenyl)ethyl]-10-(5-methyl-1,3,4-oxadiazol-2-yl)-7-oxo-2,6,12-triazatricyclo[6.4.0.0^2,6]dodeca-1(12),8,10-trien-9-yl}-2-oxo-1,3-benzoxazol-3-yl)ethyl]benzonitrile]
4.45 nM | 74.3 nM | Cc1nnc(-c2c(CCc3ccc(F)cc3)nc3c(c2-c2cnc4c(ccn4Cc4ccc(C#N)c(F)c4)c2)c(=O)n2n3CCC2)o1 [Compound 141, 2-fluoro-4-[(5-(11-[2-(p-fluorophenyl)ethyl]-10-(5-methyl-1,3,4-oxadiazol-2-yl)-7-oxo-2,6,12-triazatricyclo[6.4.0.0]dodeca-1(12),8,10-trien-9-yl}-1H-1,7-diazainden-1-yl)methyl]benzonitrile]
1.23 nM | 58.9 nM | Cc1nnc(-c2c(CCc3ccc(F)cc3)nc3c(c2-c2ccc4c(c2)oc(=O)n4Cc2ccc(C#N)cn2)c(=O)n2n3CCC2)o1 [Compound 142, 6-[(6-{11-[2-(p-fluorophenyl)ethyl]-10-(5-methyl-1,3,4-oxadiazol-2-yl)-7-oxo-2,6,12-triazatricyclo[6.4.0.0^2,6]dodeca-1(12),8,10-trien-9-yl}-2-oxo-1,3-benzoxazol-3-yl)methyl]nicotinonitrile]
6.35 nM | 79.4 nM | Cc1nnc(-c2c(CCC3CCOCC3)nc3c(c2-c2cnc4c(ccn4Cc4ccc(C#N)c(F)c4)c2)C(=O)N[C@H]3C(C)C)o1 [Compound 143, 4-[(5-{(S)-3-isopropyl-6-(5-methyl-1,3,4-oxadiazol-2-yl)-1-oxo-5-[2-(tetrahydro-2H-pyran-4-yl)ethyl]-2,4-diaza-7-indanyl}-1H-1,7-diazainden-1-yl)methyl]-2-fluorobenzonitrile]
2.58 nM | 83.4 nM | Cc1nnc(-c2c(CCC34CCC(CC3)OC4)nc3c(c2-c2ccc4c(c2)oc(=O)n4Cc2ccc(C#N)cn2)c(=O)n2n3CCC2)o1 [Compound 144, 6-((6-[10-(5-methyl-1,3,4-oxadiazol-2-yl)-11-(2-(2-oxabicyclo[2.2.2]oct-4-yl)ethyl}-7-oxo-2,6,12-triazatricyclo[6.4.0.0^2,^6]dodeca-1(12),8,10-trien-9-yl]-2-oxo-1,3-benzoxazol-3-yl}methyl)nicotinonitrile]
6.17 nM | 78.8 nM | Cc1cc(-c2c(CCC3CCOCC3)nc3c(c2-c2ccc4c(c2)oc(=O)n4Cc2ccc(C#N)cn2)S(=O)(=O)N2CCC[C@@H]32)ccn1 [Compound 145, 6-[(6-((2S)-10-(2-methyl-4-pyridyl)-7,7-dioxo-11-[2-(tetrahydro-2H-pyran-4-yl)ethyl]-7λ^6-thia-6,12-diazatricyclo[6.4.0.0^2,6]dodeca-1(12),8,10-trien-9-yl}-2-oxo-1,3-benzoxazol-3-yl)methyl]nicotinonitrile]
4.06 nM | 58.4 nM | COc1ccnc(-c2c(CCC3CCOCC3)nc3c(c2-c2cc4ccnc(N[C@@H]5CCc6ncccc65)c4s2)S(=O)(=O)CC3C(C)C)n1 (stereo partly drawn) [Compound 146, N—(R)-4-aza-1-indanyl(2-(3-isopropyl-6-(4-methoxy-2-pyrimidinyl)-1,1-dioxo-5-[2-(tetrahydro-2H-pyran-4-yl)ethyl]-1λ^6-thia-4-aza-7-indanyl}-1-thia-6-aza-7-indenyl)amine]
17.2 nM | 180 nM | Cc1nnc(-c2c(CCC34CCC(CC3)OC4)nc3c(c2-c2cc4ccnc(N[C@@H]5CCc6ncccc65)c4s2)c(=O)n2n3CCC2)o1 [Compound 147, 6-((2S)-2-methyl-10-(2-methyl-4-pyridyl)-7-oxo-11-[2-(tetrahydro-2H-pyran-4-yl)ethyl]-6,12-diazatricyclo[6.4.0.0,^1I]dodeca-1(12),8,10-trien-9-yl}-3-[(5-chloro-3-fluoro-2-pyridyl)methyl]-1,3-benzoxazol-2(3H)-one]
65.1 nM | 839 nM | Cc1cc(-c2c(CCC3CCOCC3)nc3c(c2-c2ccc4c(c2)oc(=O)n4Cc2ncc(Cl)cc2F)C(=O)N2CCC[C@@]32C)ccn1 [Compound 148, 6-((2S)-2-methyl-10-(2-methyl-4-pyridyl)-7-oxo-11-[2-(tetrahydro-2H-pyran-4-yl)ethyl]-6,12-diazatricyclo[6.4.0.0,^1I]dodeca-1(12),8,10-trien-9-yl}-3-[(5-chloro-3-fluoro-2-pyridyl)methyl]-1,3-benzoxazol-2(3H)-one]
1.86 nM | 15.2 nM | CC(C)c1nnc(-c2c(CCC3CCOCC3)nc3c(c2-c2ccc4c(c2)oc(=O)n4Cc2ccc(C#N)c(F)c2)c(=O)n2n3CCC2)o1 [Compound 150, 2-fluoro-4-[(6-(10-(5-isopropyl-1,3,4-oxadiazol-2-yl)-7-oxo-11-[2-(tetrahydro-2H-pyran-4-yl)ethyl]-2,6,12-triazatricyclo[6.4.0.0^2,6]dodeca-1(8),9,11-trien-9-yl}-2-oxo-1,3-benzoxazol-3-yl)methyl]benzonitrile]
5.12 nM | 73 nM | Cc1cc(-c2c(CCC3CCOCC3)nc3c(c2-c2ccc4c(c2)oc(=O)n4Cc2ccc(C#N)c(F)c2)c(=O)n2n3CCC2)ccn1 [Compound 151, 2-fluoro-4-[(6-(10-(2-methyl-4-pyridyl)-7-oxo-11-[2-(tetrahydro-2H-pyran-4-yl)ethyl]-2,6,12-triazatricyclo[6.4.0.0^2,6]dodeca-1(12),8,10-trien-9-yl}-2-oxo-1,3-benzoxazol-3-yl)methyl]benzonitrile]
7.28 nM | 40.1 nM | Cc1cnc(-c2c(CCC3CCOCC3)nc3c(c2-c2ccc4c(c2)oc(=O)n4Cc2ccc(C#N)c(F)c2)c(=O)n2n3CCC2)o1 [Compound 152, 2-fluoro-4-[(6-(10-(5-methyl-1,3-oxazol-2-yl)-7-oxo-11-[2-(tetrahydro-2H-pyran-4-yl)ethyl]-2,6,12-triazatricyclo[6.4.0.0^2,6]dodeca-1(12),8,10-trien-9-yl}-2-oxo-1,3-benzoxazol-3-yl)methyl]benzonitrile]
0.324 nM | 12.2 nM | CC(C)c1nnc(-c2c(CCC34CCC(CC3)OC4)nc3c(c2-c2ccc4c(c2)oc(=O)n4Cc2ccc(C#N)c(F)c2)c(=O)n2n3CCC2)o1 [Compound 153, 2-fluoro-4-({6-[10-(5-isopropyl-1,3,4-oxadiazol-2-yl)-11-(2-(2-oxabicyclo[2.2.2]oct-4-yl)ethyl}-7-oxo-2,6,12-triazatricyclo[6.4.0.0^2,6]dodeca-1(12),8,10-trien-9-yl]-2-oxo-1,3-benzoxazol-3-yl}methyl)benzonitrile]
1.49 nM | 54.7 nM | Cc1cnc(-c2c(CCC34CCC(CC3)OC4)nc3c(c2-c2ccc4c(c2)OCC(=O)N4Cc2ncc(Cl)cc2F)c(=O)n2n3CCC2)o1 [Compound 156]
9.64 nM | 270 nM | Cc1cnc(-c2c(CCC34CCC(CC3)OC4)nc3c(c2-c2ccc4c(c2)OCC(=O)N4Cc2ccc(F)cn2)c(=O)n2n3CCC2)o1 [Compound 157, 9-(4-[(5-fluoro-2-pyridyl)methyl]-3-oxo-2,4-dihydro-1,4-benzoxazin-7-yl}-10-(5-methyl-1,3-oxazol-2-yl)-11-(2-(2-oxabicyclo[2.2.2]oct-4-yl)ethyl}-2,6,12-triazatricyclo[6.4.0.0^2,6]dodeca-1(12),8,10-trien-7-one]
242 nM | 5880 nM | Cc1nnc(-c2c(C(C)C)nc3c(c2-c2ccc4c(c2)OCC(=O)N4Cc2ccc(F)cn2)C(=O)N2CCC[C@@H]32)o1 [Compound 158, 7-((2S)-11-isopropyl-10-(5-methyl-1,3,4-oxadiazol-2-yl)-7-oxo-6,12-diazatricyclo[6.4.0.0^2,6]dodeca-1(12),8,10-trien-9-yl}-4-[(5-fluoro-2-pyridyl)methyl]-2,4-dihydro-1,4-benzoxazin-3-one]
3.67 nM | 70.2 nM | Cc1cnc(-c2c(CCC34CCC(CC3)OC4)nc3c(c2-c2ccc4c(c2)OC(C)(C)C(=O)N4Cc2ccc(F)cn2)c(=O)n2n3CCC2)o1 [Compound 159, 9-(4-[(5-fluoro-2-pyridyl)methyl]-2,2-dimethyl-3-oxo-2,4-dihydro-1,4-benzoxazin-7-yl}-10-(5-methyl-1,3-oxazol-2-yl)-11-(2-(2-oxabicyclo[2.2.2]oct-4-yl)ethyl}-2,6,12-triazatricyclo[6.4.0.0^2,6]dodeca-1(12),8,10-trien-7-one]
26.9 nM | 596 nM | Cc1nnc(-c2c(C(C)C)nc3c(c2-c2ccc4c(c2)OC(C)(C)C(=O)N4Cc2ccc(F)cn2)C(=O)N2CC4CC32C4)o1 [Compound 160, 4-[(5-fluoro-2-pyridyl)methyl]-7-[4-isopropyl-5-(5-methyl-1,3,4-oxadiazol-2-yl)-8-oxo-3,9-diazatetracyclo[9.1.1.0^1,9.0^2,7]trideca-2,4,6-trien-6-yl]-2,2-dimethyl-4H-1,4-benzoxazin-3(2H)-one]
